Measurements taken from ChEMBL document CHEMBL1129640, “Assessment of structural requirements for the monoamine oxidase-B-catalyzed oxidation of 1,4-disubstituted-1,2,3,6-tetrahydropyridine derivatives related to the neurotoxin 1-methyl-4-phenyl-1,2,3,6-tetrahydropyridine” (J Med Chem, 1996).

target: T1, Amine oxidase [flavin-containing] B (Bos taurus, UniProt P56560); assay: Ratio of Kcat and KM against monoamine oxidase B (MAO-B) from beef liver was calculated; conditions: cattle
T1 sequence (P56560 whole entry): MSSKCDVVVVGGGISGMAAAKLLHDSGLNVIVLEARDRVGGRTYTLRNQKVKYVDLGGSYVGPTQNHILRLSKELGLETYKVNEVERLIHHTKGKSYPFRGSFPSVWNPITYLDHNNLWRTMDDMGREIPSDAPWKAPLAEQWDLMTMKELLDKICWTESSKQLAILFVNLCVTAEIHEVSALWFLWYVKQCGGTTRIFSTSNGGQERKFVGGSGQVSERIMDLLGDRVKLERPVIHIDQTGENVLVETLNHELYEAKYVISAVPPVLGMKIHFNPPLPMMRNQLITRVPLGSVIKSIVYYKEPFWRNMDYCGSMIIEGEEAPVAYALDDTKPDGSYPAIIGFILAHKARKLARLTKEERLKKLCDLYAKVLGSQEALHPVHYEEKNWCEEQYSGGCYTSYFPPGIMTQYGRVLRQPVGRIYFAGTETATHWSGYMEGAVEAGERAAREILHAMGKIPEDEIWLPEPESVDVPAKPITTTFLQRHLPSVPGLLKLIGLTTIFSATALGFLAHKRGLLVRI

| Ratio | Compound |
| --- | --- |
| 1900 | C1=C(Oc2cccs2)CC[N+](C2CC2)=C1 |
| 1130 | CN1CC=C(CCc2ccccc2)CC1 |
| 413 | Cn1cccc1C1=CC=[N+](C2CC2)CC1 |
| 1650 | C1=C(Oc2ccccc2)CC[N+](C2CC2)=C1 |
| 4151 | CN1CC=C(Oc2ccccc2)CC1 |
| 974 | CN1CC=C(C2CC2)CC1 |
| 67 | CN1CC=C(OC(=O)N(C)c2ccccc2)CC1 |
| 3580 | CN1CC=C(Cc2ccccc2)CC1 |
| 433 | CCOC(=O)C1=CCN(C)CC1 |
| 790 | C#CC1=CCN(C)CC1 |
| 92 | CN1CC=C(C(C)(C)C)CC1 |
| 630 | Cc1ccccc1C1=CC=[N+](C2CC2)CC1 |
| 2370 | C=CC1=CCN(C)CC1 |
| 57 | CN1CC=C(OC(=O)N(C)C)CC1 |
| 347 | CN1CC=C(Cn2cccc2)CC1 |
| 1538 | C1=C(Cc2ccccc2)CC[N+](C2CC2)=C1 |
| 150 | O=C([O-])C(=O)O.O=[N+]([O-])c1ccc(OC2=CC=[N+](C3CC3)CC2)cc1 |
| 912 | CN1CC=C(/C=C\c2ccccc2)CC1 |
| 136 | Clc1ccc(OC2=CC=[N+](C3CC3)CC2)cc1 |

| Compound | Ratio |
| --- | --- |
| CN1CC=C(c2ccc([N+](=O)[O-])cc2)CC1 | 16 |
| CN1CC=C(C2CCCCC2)CC1 | 688 |
| C1=C(c2ccccc2)CCNC1 | 319 |
| Clc1ccc(C2=CCNCC2)cc1 | 382 |
| CN1CC=C(c2ccc(N)cc2)CC1 | 54 |
| C[C@@H]1NC(=O)[C@H](NC(=O)[C@@H](N)Cc2ccc(O)cc2)C(C)(C)SSC(C)(C)[C@@H](C(O)O)NC(=O)[C@H](Cc2ccccc2)NC1=O | 19 |
| CN1CC=C(c2cccs2)CC1 | 55 |
| CCCN1CC=C(c2ccccc2)CC1 | 4 |

target: T1, Amine oxidase [flavin-containing] B; assay: Catalytic constant was measured against monoamine oxidase B (MAO-B) from beef liver; conditions: cattle

| Compound | k cat |
| --- | --- |
| CN1CC=C(c2ccccc2)CC1 | 3.4 s⁻¹ |
